Measured values as given in US20030220524A1, “Sulfur containing compounds” (priority 2000, published 2003).
Where two headings read alike, the source gives them in different places. Each block holds one compound with its values, some of them ahead of it.

Columns and labels:
Assay type in all cases: cell-based, human
AML-2 leukemic cell line = test: MTT assay; conditions: 48 h, read-out: MTT50
NB-4 leukemic cell line = test: MTT assay; conditions: 48 h, read-out: MTT50
W1 leukemic cell line [1] = test: MTT assay; conditions: 48 h, read-out: MTT50
B1 leukemic cell line = test: Fixed propidium iodide staining, flow cytometry; conditions: 48 h
G2 leukemic cell line [2] = test: Fixed propidium iodide staining, flow cytometry; conditions: 48 h
W1 leukemic cell line [3] = test: Fixed propidium iodide staining, flow cytometry; conditions: 48 h
G2 leukemic cell line [4] = test: MTT assay; conditions: Homo sapiens, 48 h, read-out: MTT50

Compound: CSSCS(=O)(=O)c1ccc(C)cc1 [Compound C, α-p-toluenesulfonyl dimethyl disulphide]
- IC50 (AML-2 leukemic cell line): 13.2 µM
- IC50 (NB-4 leukemic cell line; NB-4): 11.7 µM
- IC50 (W1 leukemic cell line [1]): 8.7 µM

Compound: CSCSSC [Compound N, 2,3,5-trithiahexane]
- IC50 (NB-4 leukemic cell line; Homo sapiens): 60.8 µM
- % G2 increase (Fixed PI) (B1 leukemic cell line; dose 50 uM): +2%
- % G2 increase (Fixed PI) (B1 leukemic cell line; dose 150 uM): −1%
- % pre-G1 (Fixed PI) (B1 leukemic cell line; dose 150 uM): 35%
- % G2 increase (Fixed PI) (G2 leukemic cell line [2]; dose 50 uM): +8%
- % pre-G1 (Fixed PI) (G2 leukemic cell line [2]; dose 50 uM): 16%
- % G2 increase (Fixed PI) (G2 leukemic cell line [2]; dose 150 uM): +8%
- % pre-G1 (Fixed PI) (G2 leukemic cell line [2]; dose 150 uM): 29%
- % G2 increase (Fixed PI) (W1 leukemic cell line [3]; dose 50 uM): +10%
- % pre-G1 (Fixed PI) (W1 leukemic cell line [3]; dose 50 uM): 22%
- % pre-G1 (Fixed PI) (W1 leukemic cell line [3]; dose 150 uM): 33%

Compound: CSSCC(=O)c1ccccc1 [Compound P, phenacyl methyl disulphide]
- IC50 (NB-4 leukemic cell line; Homo sapiens, NB-4): 60.8 µM
- % pre-G1 (Fixed PI) (B1 leukemic cell line; dose 50 uM): 52%
- % pre-G1 (Fixed PI) (B1 leukemic cell line; dose 150 uM): 80%
- % pre-G1 (Fixed PI) (G2 leukemic cell line [2]; dose 50 uM): 6%
- % pre-G1 (Fixed PI) (G2 leukemic cell line [2]; dose 150 uM): 63%
- % pre-G1 (Fixed PI) (W1 leukemic cell line [3]; dose 50 uM): 14%
- % pre-G1 (Fixed PI) (W1 leukemic cell line [3]; dose 150 uM): 55%

The next lines start with results.

- IC50 (G2 leukemic cell line [4]): 14.7 µM
- IC50 (W1 leukemic cell line [1]; Homo sapiens): 13 µM
Compound: CCC(=O)OCSSc1ccccc1 [Compound Q, 1-phenyl-1,2-dithiapropyl propionate]
- % G2 increase (Fixed PI) (B1 leukemic cell line; dose 20 uM): 0%
- % pre-G1 (Fixed PI) (B1 leukemic cell line; dose 20 uM): 5%
- % G2 increase (Fixed PI) (B1 leukemic cell line; dose 40 uM): −3%
- % pre-G1 (Fixed PI) (B1 leukemic cell line; dose 40 uM): 20%
- % G2 increase (Fixed PI) (G2 leukemic cell line [2]; dose 20 uM): −1%
- % pre-G1 (Fixed PI) (G2 leukemic cell line [2]; dose 20 uM): 31%
- % G2 increase (Fixed PI) (G2 leukemic cell line [2]; dose 40 uM): −3%
- % pre-G1 (Fixed PI) (G2 leukemic cell line [2]; dose 40 uM): 55%
- % G2 increase (Fixed PI) (W1 leukemic cell line [3]; dose 20 uM): +4%
- % pre-G1 (Fixed PI) (W1 leukemic cell line [3]; dose 20 uM): 20%
- % G2 increase (Fixed PI) (W1 leukemic cell line [3]; dose 40 uM): +12%
- % pre-G1 (Fixed PI) (W1 leukemic cell line [3]; dose 40 uM): 49%

- IC50 (AML-2 leukemic cell line; Homo sapiens): 15.6 µM
- IC50 (G2 leukemic cell line [4]): 3.6 µM
- IC50 (NB-4 leukemic cell line; Homo sapiens, NB-4): 25.4 µM
Compound: CS(=O)(=O)CSSc1ccccc1 [E, 5-phenyl-2,4,5-trithiapentane 2,2-dioxide]

- IC50 (AML-2 leukemic cell line): 37.6 µM
Compound: CSSCCS(C)(=O)=O [F, 2,3,6-trithiaheptane 6,6,-dioxide]

- IC50 (G2 leukemic cell line [4]): 11.3 µM
- IC50 (NB-4 leukemic cell line; Homo sapiens, NB-4): 21.2 µM
- IC50 (W1 leukemic cell line [1]; Homo sapiens): 4.8 µM
Compound: CSSc1ccc([N+](=O)[O-])cc1 [M, methyl p-nitrophenyl disulphide]
- % pre-G1 (Fixed PI) (B1 leukemic cell line; dose 20 uM): 70%
- % pre-G1 (Fixed PI) (B1 leukemic cell line; dose 40 uM): 76%
- % pre-G1 (Fixed PI) (G2 leukemic cell line [2]; dose 20 uM): 10%
- % pre-G1 (Fixed PI) (G2 leukemic cell line [2]; dose 40 uM): 43%
- % pre-G1 (Fixed PI) (W1 leukemic cell line [3]; dose 20 uM): 9%
- % pre-G1 (Fixed PI) (W1 leukemic cell line [3]; dose 40 uM): 28%
